From ChEMBL document CHEMBL3616440, “Non-basic azolotriazinone MCHR1 antagonists for the treatment of obesity: An empirical brain-exposures-driven candidate selection for in vivo efficacy studies” (Bioorg Med Chem Lett, 2015)
Values belong to the compound of their own block, whether it stands above or below them.

What was measured:
[1] = tested on: Plasma; assay: Plasma concentration in Sprague-Dawley rat assessed as ((R)-6-(5-chloropyridin-2-yl)-3-(4-(3-hydroxypyrrolidin-1-yl)-3-methoxyphenyl)pyrrolo[1,2-f][1,2,4]triazin-4(3H)-one level at 10 mg/kg, po qd at 8 hrs; assay type: ADME, organism-based; settings: in vivo
[2] = tested on: Brain; assay: Drug concentration in Sprague-Dawley rat brain assessed as ((R)-6-(5-chloropyridin-2-yl)-3-(4-(3-hydroxypyrrolidin-1-yl)-3-methoxyphenyl)pyrrolo[1,2-f][1,2,4]triazin-4(3H)-one level at 10 mg/kg, po qd at 8 hrs; assay type: ADME, organism-based; settings: in vivo, read-out: Drug uptake
[3] = tested on: Nucleic Acid; assay: Ratio of drug level in Sprague-Dawley rat brain to plasma assessed as ((R)-6-(5-chloropyridin-2-yl)-3-(4-(3-hydroxypyrrolidin-1-yl)-3-methoxyphenyl)pyrrolo[1,2-f][1,2,4]triazin-4(3H)-one level at 10 mg/kg, po qd; assay type: ADME, organism-based
[4] = tested on: Brain; assay: Drug concentration in Sprague-Dawley rat brain assessed as 6-(4-chlorophenyl)-3-(4-(2-cyclopropyl-2-hydroxyethoxy)-3-methoxyphenyl)pyrrolo[1,2-f][1,2,4]triazin-4(3H)-one level at 3 mg/kg, po qd at 20 hrs; assay type: ADME, organism-based; settings: in vivo, read-out: Drug uptake
[5] = tested on: Rattus norvegicus; assay: Antiobesity activity in Sprague-Dawley rat assessed as body weight reduction at 3 mg/kg, po qd after 4 days relative to control; assay type: functional; settings: 96 h
[6] = tested on: Brain; assay: Free drug level in Sprague-Dawley rat brain assessed as 6-(4-chlorophenyl)-3-(4-(2-cyclopropyl-2-hydroxyethoxy)-3-methoxyphenyl)pyrrolo[1,2-f][1,2,4]triazin-4(3H)-one level at 3 mg/kg, po qd at 20 hrs; assay type: ADME, organism-based; settings: in vivo
[7] = tested on: Rattus norvegicus; assay: Antiobesity activity in Sprague-Dawley rat assessed as body weight reduction at 30 mg/kg, po qd after 4 days relative to control; assay type: functional; settings: 96 h
[8] = tested on: Brain; assay: Drug concentration in Sprague-Dawley rat brain assessed as 6-(4-chlorophenyl)-3-(4-(2-cyclopropyl-2-hydroxyethoxy)-3-methoxyphenyl)pyrrolo[1,2-f][1,2,4]triazin-4(3H)-one level at 10 mg/kg, po qd at 8 hrs; assay type: ADME, organism-based; settings: in vivo, read-out: Drug uptake
[9] = Ratio of free drug level in brain of Sprague-Dawley rat assessed as 6-(4-chlorophenyl)-3-(4-(2-cyclopropyl-2-hydroxyethoxy)-3-methoxyphenyl)pyrrolo[1,2-f][1,2,4]triazin-4(3H)-one level at 10 mg/kg, po to Ki for rat MCHR1; assay type: ADME, organism-based; settings: in vivo
[10] = tested on: Nucleic Acid; assay: Ratio of drug level in Sprague-Dawley rat brain to plasma assessed as 6-(4-chlorophenyl)-3-(4-(2-cyclopropyl-2-hydroxyethoxy)-3-methoxyphenyl)pyrrolo[1,2-f][1,2,4]triazin-4(3H)-one level at 10 mg/kg, po qd; assay type: ADME, organism-based
[11] = tested on: Plasma; assay: Plasma concentration in Sprague-Dawley rat assessed as 6-(4-chlorophenyl)-3-(4-(2-cyclopropyl-2-hydroxyethoxy)-3-methoxyphenyl)pyrrolo[1,2-f][1,2,4]triazin-4(3H)-one level at 10 mg/kg, po qd at 8 hrs; assay type: ADME, organism-based; settings: in vivo
[12] = tested on: Brain; assay: Free drug level in Sprague-Dawley rat brain assessed as 6-(4-chlorophenyl)-3-(4-(2-cyclopropyl-2-hydroxyethoxy)-3-methoxyphenyl)pyrrolo[1,2-f][1,2,4]triazin-4(3H)-one level at 30 mg/kg, po qd at 20 hrs; assay type: ADME, organism-based; settings: in vivo
[13] = tested on: Rattus norvegicus; assay: Antiobesity activity in Sprague-Dawley rat assessed as body weight reduction at 10 mg/kg, po qd after 4 days relative to control; assay type: functional; settings: 96 h
[14] = tested on: Plasma; assay: Fraction unbound in Sprague-Dawley rat plasma assessed as 6-(4-chlorophenyl)-3-(4-(2-cyclopropyl-2-hydroxyethoxy)-3-methoxyphenyl)pyrrolo[1,2-f][1,2,4]triazin-4(3H)-one level; assay type: ADME, cell-free
[15] = tested on: Brain; assay: Drug concentration in Sprague-Dawley rat brain assessed as 6-(4-chlorophenyl)-3-(4-(2-cyclopropyl-2-hydroxyethoxy)-3-methoxyphenyl)pyrrolo[1,2-f][1,2,4]triazin-4(3H)-one level at 30 mg/kg, po qd at 20 hrs; assay type: ADME, organism-based; settings: in vivo, read-out: Drug uptake
[16] = tested on: Brain; assay: Drug concentration in Sprague-Dawley rat brain assessed as 6-(4-chlorophenyl)-3-(4-(2-cyclopropyl-2-hydroxyethoxy)-3-methoxyphenyl)pyrrolo[1,2-f][1,2,4]triazin-4(3H)-one level at 10 mg/kg, po qd at 20 hrs; assay type: ADME, organism-based; settings: in vivo, read-out: Drug uptake
[17] = tested on: Brain; assay: Free drug level in Sprague-Dawley rat brain assessed as 6-(4-chlorophenyl)-3-(4-(2-cyclopropyl-2-hydroxyethoxy)-3-methoxyphenyl)pyrrolo[1,2-f][1,2,4]triazin-4(3H)-one level at 10 mg/kg, po qd at 20 hrs; assay type: ADME, organism-based; settings: in vivo
[18] = Ratio of free drug level in brain of Sprague-Dawley rat assessed as 6-(4-chlorophenyl)-3-(4-(2-cyclopropyl-2-hydroxyethoxy)-3-methoxyphenyl)pyrrolo[1,2-f][1,2,4]triazin-4(3H)-one level at 30 mg/kg, po to Ki for rat MCHR1; assay type: ADME, organism-based; settings: in vivo
[19] = Ratio of free drug level in brain of Sprague-Dawley rat assessed as 6-(4-chlorophenyl)-3-(4-(2-cyclopropyl-2-hydroxyethoxy)-3-methoxyphenyl)pyrrolo[1,2-f][1,2,4]triazin-4(3H)-one level at 3 mg/kg, po to Ki for rat MCHR1; assay type: ADME, organism-based; settings: in vivo
[20] = tested on: Plasma; assay: Plasma concentration in Sprague-Dawley rat assessed as 6-(5-chloropyrimidin-2-yl)-3-(4-((3,3-difluoro-1-hydroxycyclobutyl)methoxy)-3-methoxyphenyl)pyrrolo[1,2-f][1,2,4]triazin-4(3H)-one level at 10 mg/kg, po qd at 8 hrs; assay type: ADME, organism-based; settings: in vivo
[21] = tested on: Brain; assay: Drug concentration in Sprague-Dawley rat brain assessed as 6-(5-chloropyrimidin-2-yl)-3-(4-((3,3-difluoro-1-hydroxycyclobutyl)methoxy)-3-methoxyphenyl)pyrrolo[1,2-f][1,2,4]triazin-4(3H)-one level at 10 mg/kg, po qd at 8 hrs; assay type: ADME, organism-based; settings: in vivo, read-out: Drug uptake
[22] = tested on: Nucleic Acid; assay: Ratio of drug level in Sprague-Dawley rat brain to plasma assessed as 6-(5-chloropyrimidin-2-yl)-3-(4-((3,3-difluoro-1-hydroxycyclobutyl)methoxy)-3-methoxyphenyl)pyrrolo[1,2-f][1,2,4]triazin-4(3H)-one level at 10 mg/kg, po qd; assay type: ADME, organism-based

- concentration [1]: 4.59 µM
- concentration [2]: 664 nM
- BPR [3]: 0.1
Structure (SMILES): COc1cc(-n2cnn3cc(-c4ccc(Cl)cn4)cc3c2=O)ccc1N1CC[C@@H](OC(=O)[C@@H](N)C(C)C)C1

- concentration [4]: 3.42 µM
- Drug uptake(free) [6]: 10 nM
- concentration [8]: 3.74 µM
- Ratio [9]: 8.6
- BPR [10]: 3
- concentration [11]: 1250 nM
- Drug uptake(free) [12]: 44 nM
- Fu [14]: 0.3%
- concentration [15]: 14.8 µM
- concentration [16]: 7.98 µM
- Drug uptake(free) [17]: 24 nM
- Ratio [18]: 16
- Ratio [19]: 3.6
Structure (SMILES): COc1cc(-n2cnn3cc(-c4ccc(Cl)cc4)cc3c2=O)ccc1OCC(OC(=O)[C@@H](N)C(C)C)C1CC1 (some centres not stated)
- inhibition in vivo at 3 mg/kg [5]: 0%
- inhibition in vivo at 30 mg/kg [7]: 2.5%
- inhibition in vivo at 10 mg/kg [13]: 0%

- concentration [20]: 1130 nM
- concentration [21]: 805 nM
- BPR [22]: 0.7
Structure (SMILES): COc1cc(-n2cnn3cc(-c4ncc(Cl)cn4)cc3c2=O)ccc1OCC1(OC(=O)CN)CC(F)(F)C1
